Our source for the MIC values is patent EP0091302A1, “Beta-lactam derivatives” (BEECHAM GROUP PLC, priority 1982, dated 1983).

Each structure is given as a SMILES string.

What all share (test): Antibacterial activity (MIC)
Holding throughout (type): cell-based

One assay concerns E. coli ESS. As to conditions: Escherichia coli.
The next assay concerns E. coli JT4. The settings on record: Escherichia coli.
In a further assay the test system is Ps. aeruginosa 10662. As to conditions: Pseudomonas aeruginosa.
Assay [1] deals with Ps aeruginosa Dalgleish 10-^2.
The subject of the next assay is N catarrhalis 1502.
In the next assay the test system is Ps. aeruginosa Dalgleish. As to conditions: Pseudomonas aeruginosa.
Where [2] appears, read: Pseudomonas aeruginosa, Ps. aeruginosa 10^-2.

For orientation: MIC means the lowest concentration that inhibits growth of the organism. A low value points to greater potency. Regarding `CO[C@@]1(NC(=O)C(c2cc(N)c(O)c(O)c2)S(=O)(=O)O)C(=O)N2[C@@H](C(=O)O)C(C)(C)S[C@@H]21` (stereo partly drawn) [Example 1, Disodium 6,β-[R,S-2-(5-amino-3,4-dihydroxyphenyl)-2-sulphoacetamido]-6,α-methoxy penicillanate], the MIC in the assay on E. coli ESS is 5 µg/mL; in the assay with E. coli JT4 it was 25 µg/mL; against Ps. aeruginosa 10662, 50 µg/mL; in assay [1] (Ps aeruginosa Dalgleish 10-^2), 50 µg/mL; in the assay on N catarrhalis 1502, less than 0.2 µg/mL.
As to `CO[C@@]1(NC(=O)C(c2cc(O)c(O)c([N+](=O)[O-])c2)S(=O)(=O)O)C(=O)N2[C@@H](C(=O)O)C(C)(C)S[C@@H]21` (stereo partly drawn) [Example 2, Disodium 6,β-[R,S-2-(3,4-dihydroxy-5-nitrophenyl)-2-sulphoacetamido]-6,α-methoxypenicillanate], the minimal inhibitory concentration (MIC) in the assay on E. coli ESS is 0.2 µg/mL; against E. coli JT4, 2.5 µg/mL; with Ps. aeruginosa 10662, 5 µg/mL; in assay [1] (Ps aeruginosa Dalgleish 10-^2), 1 µg/mL; in the assay on N catarrhalis 1502 it was less than 0.02 µg/mL.
As to `CO[C@@]1(NC(=O)[C@@H](c2cc(Cl)c(OC(C)=O)c(OC(C)=O)c2)S(=O)(=O)O)C(=O)N2[C@@H](C(=O)O)C(C)(C)S[C@@H]21` [Example 4v, Disodium 6,β-[R-2-(3-chloro-4,5-diacetoxyphenyl)-2-sulphoacetamido]-6,a-methoxypenicillanate], the MIC was 0.05 µg/mL against E. coli ESS; 0.25 µg/mL with E. coli JT4; 0.5 µg/mL in the assay on Ps. aeruginosa 10662; 0.25 µg/mL in assay [1] (setting [2]); less than 0.01 µg/mL against N catarrhalis 1502.
Take `CO[C@@]1(NC(=O)[C@@H](c2cc(O)c(O)c(Cl)c2)S(=O)(=O)O)C(=O)N2[C@@H](C(=O)O)C(C)(C)S[C@@H]21` [Example 4vi, Disodium 6,B-[R-2-(3-chloro-4,5-dihydroxyphenyl)-2-sulphoacetamido]-6,a-methoxypenicillanate]: the MIC against E. coli ESS is 0.05 µg/mL; in the assay with E. coli JT4, 0.5 µg/mL; with Ps. aeruginosa 10662, 2.5 µg/mL; in assay [1] (setting [2]), 0.5 µg/mL; against N catarrhalis 1502, less than 0.02 µg/mL.
In the case of `CO[C@@]1(NC(=O)[C@@H](c2cc(OC(C)=O)c(OC(C)=O)cc2Cl)S(=O)(=O)O)C(=O)N2[C@@H](C(=O)O)C(C)(C)S[C@@H]21` [Example 5, Disodium 6,B-[R-2-(2-chloro-4,5-diacetoxyphenyl)-2-sulphoacetamido]-6,a-methoxypenicillanate], the MIC in the assay on E. coli ESS is 0.2 µg/mL; in the assay with E. coli JT4 it was 0.5 µg/mL; against Ps. aeruginosa 10662, 5 µg/mL; in assay [1] (setting [2]), 1 µg/mL; in the assay on N catarrhalis 1502, less than 0.02 µg/mL.
In the case of `CO[C@@]1(NC(=O)[C@@H](c2cc(OC(C)=O)c(OC(C)=O)cc2C)S(=O)(=O)O)C(=O)N2[C@@H](C(=O)O)C(C)(C)S[C@@H]21` [Example 6vi, Disodium 6,β-[R-2-(4,5-diacetoxy-2-methylphenyl)-2-sulphoacetamido]-6,a-methoxypenicillanate], the MIC was 4 µg/mL against E. coli ESS, 16 µg/mL against E. coli JT4, 16 µg/mL in the assay on Ps. aeruginosa 10662 and 4 µg/mL in the assay with Ps. aeruginosa Dalgleish.
Take `CO[C@@]1(NC(=O)[C@H](c2cc(OC(C)=O)c(OC(C)=O)cc2C)S(=O)(=O)O)C(=O)N2[C@@H](C(=O)O)C(C)(C)S[C@@H]21` [Example 6vii, Disodium 6,β-[S-2-(4,5-diacetoxy-2-methylphenyl)-2-sulphoacetamido]-6,a-methoxypenicillanate]: the MIC worked out at 32 µg/mL with E. coli ESS, 64 µg/mL with E. coli JT4, 128 µg/mL against Ps. aeruginosa 10662 and 128 µg/mL against Ps. aeruginosa Dalgleish.
For `CO[C@@]1(NC(=O)[C@@H](c2cc(C)c(OC(C)=O)c(OC(C)=O)c2)S(=O)(=O)O)C(=O)N2[C@@H](C(=O)O)C(C)(C)S[C@@H]21` [Example 7, Disodium 6,β-[R-2-(4,5-diacetoxy-3-methylphenyl)-2-sulphoacetamido]-6,a-methoxypenicillanate], the minimal inhibitory concentration (MIC) was determined as 0.5 µg/mL against E. coli ESS, 8 µg/mL against E. coli JT4, 16 µg/mL in the assay on Ps. aeruginosa 10662 and 8 µg/mL with Ps. aeruginosa Dalgleish.
With `CO[C@@]1(NC(=O)[C@@H](c2cc(OC(C)=O)c(OC(C)=O)c(Cl)c2Cl)S(=O)(=O)O)C(=O)N2[C@@H](C(=O)O)C(C)(C)S[C@@H]21` [Example 8, Disodium 6,β-[R-2-(4,5-diacetoxy-2,3-dichlorophenyl)-2-sulphoacetamido]-6,a-methoxypenicillanate], the MIC with E. coli ESS came out at 0.25 µg/mL; in the assay with E. coli JT4, 1 µg/mL; in the assay with Ps. aeruginosa 10662, 2 µg/mL; in the assay with Ps. aeruginosa Dalgleish, 2 µg/mL.
